Entries after “also recorded” stand apart in the source; their conditions may differ. Like-named read-outs stand apart in the source and are kept apart here.
How the values were obtained:
[1] = molecular target: T1, ΔF508-CFTR (Homo sapiens, UniProt P13569, DEL508-508); details: 0.1 and 2 mM; primary nasal polyp epithelia or IB3-1 cells; up to 7 days in culture; cited from earlier work
T1 construct: primary cultures of nasal polyp epithelia from CF patients (ΔF508 homozygous or heterozygous), or the CF bronchial epithelial cell line IB3-1; endogenous in cells; host or cells: primary nasal polyp epithelia from CF patients; IB3-1 CF bronchial epithelial cell line
T1 sequence (P13569 with tags, fused parts or gaps DEL508-508): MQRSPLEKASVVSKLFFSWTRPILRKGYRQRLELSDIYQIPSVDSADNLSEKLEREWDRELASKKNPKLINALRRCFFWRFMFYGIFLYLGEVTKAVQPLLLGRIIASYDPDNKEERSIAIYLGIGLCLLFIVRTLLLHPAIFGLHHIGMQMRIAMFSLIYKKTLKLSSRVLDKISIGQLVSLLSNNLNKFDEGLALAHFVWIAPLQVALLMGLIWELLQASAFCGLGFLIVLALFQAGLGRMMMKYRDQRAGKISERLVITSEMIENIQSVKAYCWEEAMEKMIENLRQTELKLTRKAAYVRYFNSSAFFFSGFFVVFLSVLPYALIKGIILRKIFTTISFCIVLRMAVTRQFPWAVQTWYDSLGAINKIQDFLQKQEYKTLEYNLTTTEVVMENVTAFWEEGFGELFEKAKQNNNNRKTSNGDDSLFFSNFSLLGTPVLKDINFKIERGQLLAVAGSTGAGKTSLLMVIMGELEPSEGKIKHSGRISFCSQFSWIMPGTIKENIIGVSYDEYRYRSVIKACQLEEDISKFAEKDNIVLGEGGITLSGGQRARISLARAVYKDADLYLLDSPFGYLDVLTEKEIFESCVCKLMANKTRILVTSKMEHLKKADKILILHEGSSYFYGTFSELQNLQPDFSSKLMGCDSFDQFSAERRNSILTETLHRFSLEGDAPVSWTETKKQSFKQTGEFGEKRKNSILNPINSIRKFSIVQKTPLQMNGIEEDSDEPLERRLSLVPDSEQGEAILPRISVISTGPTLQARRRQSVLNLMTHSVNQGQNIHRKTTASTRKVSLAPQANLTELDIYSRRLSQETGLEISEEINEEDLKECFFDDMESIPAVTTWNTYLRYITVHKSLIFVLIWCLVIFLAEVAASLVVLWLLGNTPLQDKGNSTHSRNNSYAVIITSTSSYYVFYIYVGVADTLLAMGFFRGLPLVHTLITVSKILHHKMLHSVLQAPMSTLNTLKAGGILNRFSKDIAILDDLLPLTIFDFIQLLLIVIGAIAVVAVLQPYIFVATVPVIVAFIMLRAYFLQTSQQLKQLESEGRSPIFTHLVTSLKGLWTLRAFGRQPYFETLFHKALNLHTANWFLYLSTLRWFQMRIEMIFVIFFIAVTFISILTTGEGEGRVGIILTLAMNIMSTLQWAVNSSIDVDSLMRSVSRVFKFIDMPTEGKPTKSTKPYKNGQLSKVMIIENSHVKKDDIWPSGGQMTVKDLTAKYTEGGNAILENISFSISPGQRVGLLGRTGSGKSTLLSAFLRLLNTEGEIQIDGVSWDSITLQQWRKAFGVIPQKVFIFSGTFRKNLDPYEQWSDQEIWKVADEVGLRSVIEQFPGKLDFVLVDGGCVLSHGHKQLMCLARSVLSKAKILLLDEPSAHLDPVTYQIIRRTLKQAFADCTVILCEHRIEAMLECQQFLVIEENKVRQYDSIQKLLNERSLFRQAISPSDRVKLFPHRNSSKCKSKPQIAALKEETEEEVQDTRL

[2] = molecular target: T1, ΔF508-CFTR; details: IB3-1 cells; 2.5 mM; cited from earlier work
[3] = tested on: ΔF508-CFTR; details: cited from earlier work
[4] = tested on: ΔF508-CFTR; details: CF epithelial cells; cited from earlier work
[5] = tested on: CFTR gene; details: cited from earlier work
[6] = in vivo; cited from earlier work
[7] = tested on: ΔF508-homozygous pancreatic acinar cell line; details: cited from earlier work
[8] = tested on: ΔF508-CFTR; details: up to 300 mM; cited from earlier work
[9] = tested on: IB3-1 cells; details: respiratory epithelial cells; 1-2 mM; cited from earlier work
[10] = molecular target: T1, ΔF508-CFTR; details: 1 M or 10%; cited from earlier work
[11] = tested on: fetal hemoglobin; assay: fetal hemoglobin levels in thalassemic patients; type: in vivo
From the text: Compositions administered in pulses have the surprising benefit of reducing the overall load of drug on the patient as the total amount of drug administered can be substantially less than that amount that has been therapeutically administered by conventional continuous therapy. Substantially means that there is more than an insignificant difference between the amount or concentration of a composition administered by pulsing according to the invention verses the amount or concentration administered using conventional therapy, without compromising the beneficial effect achieved to the patient. […] Typical pulsed amounts of arginine butyrate are from about 2 to about 20 g/kg/month, and preferably from about 3 to about 10 g/kg/month wherein the patient receives a total of less than about 20 kg per month, preferably less than about 15 kg per month and more preferably less than about 10 kg per month. […] Preferably, the therapeutically effective pulsed dose is less than the continuous dose, or less than one half, one third, one quarter, one fifth, one tenth or even one twentieth of the therapeutic continuous dose of the same composition or even less.

[12] = in vivo; cited from earlier work; remark: listed apart in the source

## O=C(O)CCCc1ccccc1 [4PBA, 4-phenylbutyrate]
[1]
  forskolin-activated chloride secretion: restoration of forskolin-activated chloride secretion
[2]
  protein kinase A-activated, linear, 10 pS chloride channels at the plasma membrane: appeared at the plasma membrane
[3]; 4PBA-treated samples
  CFTR immunoreactivity in immunoblot experiments: increased CFTR immunoreactivity
[3]; IB3-1 cells, 0.1-1 mM
  higher molecular mass forms of CFTR (immunoblot): appearance of higher molecular mass forms of CFTR
[3]; primary nasal epithelia, 5 mM
  higher molecular mass forms of CFTR (immunoblot): appearance of higher molecular mass forms of CFTR
[4]
  amount of ΔF508-CFTR by immunocytochemistry: consistent with increasing amounts of ΔF508-CFTR; also recorded: Increased CFTR immunoreactivity
[5]
  CFTR RNA levels: no changes in CFTF RNA levels; also recorded: no increases in CFTR mRNA
[6]
  clinical tolerability: not well tolerated

## CCCC(=O)O [butyrate, butyric acid]
[7]
  cAMP-responsive chloride secretion: can induce cAMP-responsive chloride secretion
[8]
  cAMP-stimulation indicative of chloride ion transport: no increases in cAMP-stimulation was observed
[9]
  cell health, growth rate and morphology: morphologic changes in IB3-1 cells, with rounding of cells and decreased growth rate

## OCC(O)CO [glycerol]
[10]
  movement of ΔF508-CFTR from the ER to the plasma membrane: facilitate movement of ΔF508-CFTR from the ER to the plasma membrane

## arginine butyrate
[11]; about 2000 mg/kg patient weight, continuous
  effectiveness at continuous administration: effective
[11]; about 400 to 1500 mg/kg in pulses, thalassemic patients
  benefit measured by rise in fetal hemoglobin levels: surprisingly more beneficial
[12]
  half-life: 15 min

From patent US20010034367A1, “Compositions and methods for the treatment of cystic fibrosis” (priority 1998, published 2001)
